Reference: patent publication US20220204509A1, “PYRIMIDO FIVE-MEMBERED HETEROCYCLIC COMPOUND AND USE THEREOF AS MUTANT IDH2 INHIBITOR” (EPITAS BIOSCIENCES (SHANGHAI) CO., LTD., priority 2019, published 2022)

Legend:
IDH2/R140Q [1] = molecular target: T1, IDH2/R140Q (Homo sapiens, UniProt P48735, R140Q); test: Determination of the inhibitory activity of the compounds on IDH2/R140Q (NADPH reduction, resazurin/lipoamide dehydrogenase detection); format: biochemical; set-up: purchased Abcam ab198153
T1 sequence (P48735 40-452 R140Q): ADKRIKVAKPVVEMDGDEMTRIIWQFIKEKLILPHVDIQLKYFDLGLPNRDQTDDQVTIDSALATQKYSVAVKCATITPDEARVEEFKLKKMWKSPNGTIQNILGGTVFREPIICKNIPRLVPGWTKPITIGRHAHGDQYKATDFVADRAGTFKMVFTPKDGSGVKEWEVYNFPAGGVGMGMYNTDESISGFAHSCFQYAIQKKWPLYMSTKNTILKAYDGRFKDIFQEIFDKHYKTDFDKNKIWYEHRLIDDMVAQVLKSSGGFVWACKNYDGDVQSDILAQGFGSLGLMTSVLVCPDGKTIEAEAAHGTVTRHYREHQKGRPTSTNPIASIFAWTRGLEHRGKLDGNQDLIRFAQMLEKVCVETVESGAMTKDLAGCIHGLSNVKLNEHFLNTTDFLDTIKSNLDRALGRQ
Protocol: In this example, the inhibitory activity of a compound on IDH2/R140Q was determined by measuring the reduction of the cofactor NADPH. The compound was incubated with IDH2/R140Q and NADPH, and then the reaction was initiated by adding α-KG. After a certain time of reaction under linear conditions, lipoamide dehydrogenase and the corresponding substrate resazurin were added for detection. Lipoamide dehydrogenase terminated the IDH2/R140Q reaction bγ subtracting the available cofactor NADPH. It oxidized NADPH to NADP, and reduced resazurin to highly fluorescent resorufin. The production of resorufin was detected to quantify the amount of cofactor NADPH remaining after a specific reaction time.
Then 25 μL of a stop mixed solution (lipoamide dehydrogenase 36 μg/mL, resazurin 30 μM) prepared with the above reaction buffer was added to convert resazurin to resorufin to measure the remaining NADPH. After 10 minutes of incubation at 25° C., the fluorescence value was measured by Tecan […] […] The enzyme activity was measured at 10 concentrations for each compound, and multiple background holes without enzyme and full enzyme activity holes without compound were set up in the reaction. The concentration of dimethyl sulfoxide in the system was less than or equal to 2%. […] The multi-well plate in this example was purchased from Thermo Fisher Scientific, NADPH, α-KG, lipoamide dehydrogenase, and resazurin were purchased from Shenggong Bioengineering Co., Ltd., and IDH2/R140Q was purchased from Abcam (ab198153).

IDH2/R140Q [2] = molecular target: T1, IDH2/R140Q; test: Inhibition of mutant IDH2 activity at the cell level (extracellular 2-HG, U87MG overexpressing IDH2/R140Q); format: cell-based
Protocol: 2-hydroxyglutarate dehydrogenase (2HGDH) can reduce NAD+ to NADH in the presence of 2-HG. The latter can be quantitatively detected by diaphorase and its substrate Resazurin.
The glioma cells U87MG overexpressing IDH2/R140Q mutation were cultured in 1% sodium pyruvate high-sugar MEM, 10% FBS, and placed in a CO2 incubator (37° C., 5% CO2, 95% air) for cultivation.
The cells were digested with trypsin and seeded in a 96-well plate at a density of 1×10^4 with a medium of 200 μL and cultured in a 37° C. incubator overnight. The next day, the test compound was added to a final concentration of 0.1% for DMSO. […] The protein and other components in the medium that may interfere with the results were filtered, and the follow-up method was used to detect the content of 2-HG. 50 uL CellTiter-Glo (purchased from Promega) was added to the 96-well plate with the remaining 100 μL of medium to detect cell survival;
Extracellular 2-HG detecting system:
(1) 50 μL reaction system: reaction buffer (50 mM Tris pH7.5, 100 mM NaCl, 20 mM MgCl2, 0.05% BSA), in which the final concentration of NAD+ was 40 μM, the final concentration of 2HGDH was 20 nM, and the test sample was added to 5 μL of medium; the reaction solution was mixed and centrifuged, and the reaction was carried out for 1 hour at 25° C. in the dark;
Preparation of 2-HG standard curve: a 2-HG stock solution was diluted to 20 μM with reaction buffer, and a 2-fold gradient diluting was performed for a total of 6 points. Afterwards, the above-mentioned 2-HG was measured according to the extracellular 2-HG detecting system, and a standard curve was calculated and drawn.
Calculation of extracellular 2-HG content:
The fluorescence value obtained in the extracellular 2-HG detecting system was calculated using the 2-HG standard curve to calculate the content of 2-HG in the medium, and DMSO was used as a negative control to calculate the compound's inhibition against IDH2/R140Q mutation producing 2-HG activity.

[3] = IDH2/R140Q inhibitory activity, cells marked (1 h), read-out: IC50
[4] = U87MG overexpressing IDH2/R140Q, 2-HG in medium after 24 hours of culturing with compound, read-out: IC50
[5] = IDH2/R140Q inhibitory activity, pre-incubated at 25° C. for 16 hours, read-out: IC50

Compound | IC50 (IDH2/R140Q [1]; [3]) [µM] | IC50 (IDH2/R140Q [2]; [4]) [µM] | IC50 (IDH2/R140Q [1]; [5]) [µM] | other results
CC(C)(O)CNc1nc(Nc2ccnc(C(F)(F)F)c2)nc(-c2cccc(C(F)(F)F)n2)n1 [AG-221, Enasidenib, reference compound] |  |  |  | IC50 (IDH2/R140Q [1]): < 0.1 µM; IC50 (IDH2/R140Q [2]): < 0.1 µM
CC(C)n1cnc2c(Nc3ccccc3)nc(-c3ccccc3)nc21 [Compound 1, 9-isopropyl-N,2-diphenyl-9H-purin-6-amine] | > 10 |  |  | 
COc1ccccc1Nc1nc(-c2ccccc2)nc2c1ncn2C(C)C [Compound 2, 9-isopropyl-N-(2-methoxyphenyl)-2-phenyl-9H-purin-6-amine] | > 10 |  |  | 
CC(C)n1cnc2c(Nc3ccnc(C(F)(F)F)c3)nc(-c3ccccc3)nc21 [Compound 3, 9-isopropyl-2-phenyl-N-(2-(trifluoromethyl)pyridin-4-yl)-9H-purin-6-amine] | > 10 | > 10 |  | 
CC(C)n1cnc2c(Nc3ccnc(C(F)(F)F)c3)nc(-c3cccc(C(F)(F)F)n3)nc21 [Compound 4, 9-isopropyl-2-(6-(trifluoromethyl)pyridin-2-yl)-N-(2-(trifluoromethyl)pyridin-4-yl)-9H-purine-6-amine] | > 10 | > 10 |  | 
CC(C)n1cnc2c(Nc3ccnc(C(F)(F)F)c3)nc(-c3cccnc3)nc21 [Compound 5, 9-isopropyl-2-(pyridin-3-yl)-N-(2-(trifluoromethyl)pyridin-4-yl)-9H-purin-6-amine] | > 10 | > 10 |  | 
c1ccc(Nc2nc(-c3ccccc3)nc3[nH]cnc23)cc1 [Compound 6, N,2-diphenyl-9H-purin-6-amine] | > 10 | > 10 |  | 
Cc1cc2c(-c3ccccc3)nc(Nc3ccccc3)nc2[nH]1 [Compound 7, 6-methyl-N,4-diphenyl-7H-pyrrolo[2,3-d]pyrimidin-2-amine] |  | 1 to 10 | 1 to 10 | 
Cc1cc2c(Nc3ccccc3)nc(-c3ccccc3)nc2[nH]1 [Compound 8, 6-methyl-N,2-diphenyl-7H-pyrrolo[2,3-d]pyrimidin-4-amine] |  | 1 to 10 | 0.1 to 1 | 
CC(C)n1cnc2c(Nc3ccnc(C(F)(F)F)c3)nc(-c3ccncc3)nc21 [Compound 9, 9-isopropyl-2-(pyridin-4-yl)-N-(2-(trifluoromethyl)pyridin-4-yl)-9H-purin-6-amine] | > 10 | > 10 |  | 
CC(C)n1cnc2c(Nc3ccnc(C(F)(F)F)c3)nc(-c3ccccn3)nc21 [Compound 10, 9-isopropyl-2-(pyridin-2-yl)-N-(2-(trifluoromethyl)pyridin-4-yl)-9H-purin-6-amine] | > 10 | > 10 |  | 
Cn1ccc2c(Nc3ccccc3)nc(-c3ccccc3)nc21 [Compound 11, 7-methyl-N,2-diphenyl-7H-pyrrolo[2,3-d]pyrimidin-4-amine] | > 10 |  |  | 
CC(C)n1cnc2c(-c3ccccc3)nc(Nc3ccccc3)nc21 [Compound 12, 9-isopropyl-N,6-diphenyl-9H-purin-2-amine] | > 10 | > 10 |  | 
Cc1cc2c(NC(C)C)nc(-c3ccccc3)nc2[nH]1 [Compound 13, N-isopropyl-6-methyl-2-phenyl-7H-pyrrolo[2,3-d]pyrimidin-4-amine] |  | 0.1 to 1 | 0.1 to 1 | 
Cc1nc2c(Nc3ccccc3)nc(-c3ccccc3)nc2[nH]1 [Compound 14, 8-methyl-N,2-diphenyl-9H-purin-6-amine] | > 10 | > 10 |  | 
Cc1cc2c(NC3CC3)nc(-c3ccc4ccccc4c3)nc2[nH]1 [Compound 15, N-cyclopropyl-6-methyl-2-(naphthalene-2-yl)-7H-pyrrolo[2,3-d]pyrimidin-4-amine] |  |  | > 10 | 

Compound | IC50 (IDH2/R140Q [1]; [3]) [µM] | IC50 (IDH2/R140Q [2]; [4]) [µM] | IC50 (IDH2/R140Q [1]; [5]) [µM] | other results
Cc1cc2c(NC(C)C)nc(-c3ccccn3)nc2[nH]1 [Compound 16, N-isopropyl-6-methyl-2-(pyridin-2-yl)-7H-pyrrolo[2,3-d]pyrimidin-4-amine] |  | 1 to 10 | > 10 | 
Cc1cc2c(NC(C)C)nc(-c3cccnc3)nc2[nH]1 [Compound 17, N-isopropyl-6-methyl-2-(pyridin-3-yl)-7H-pyrrolo[2,3-d]pyrimidin-4-amine] |  | > 10 | > 10 | 
Cc1cc2c(NC(C)C)nc(-c3ccncc3)nc2[nH]1 [Compound 18, N-isopropyl-6-methyl-2-(pyridin-4-yl)-7H-pyrrolo[2,3-d]pyrimidin-4-amine] |  | > 10 | > 10 | 
c1ccc(Nc2nc(-c3ccccc3)nc3[nH]ccc23)cc1 [Compound 19, N,2-diphenyl-7H-pyrrolo[2,3-d]pyrimidin-4-amine] |  | > 10 | > 10 | 
Cc1cc2c(Nc3ccnc(C(F)(F)F)c3)nc(-c3ccccc3)nc2[nH]1 [Compound 20, 6-methyl-2-phenyl-N-(2-(trifluoromethyl)pyridin-4-yl)-7H-pyrrolo[2,3-d]pyrimidin-4-amine] |  | 1 to 10 | 0.1 to 1 | 
Cc1cc2c(Nc3ccnc(F)c3)nc(-c3ccccc3)nc2[nH]1 [Compound 21, N-(2-fluoropyridin-4-yl)-6-methyl-2-phenyl-7H-pyrrolo[2,3-d]pyrimidin-4-amine] |  | 1 to 10 | > 10 | 
Cc1cc2c(Nc3ccccc3)nc(Nc3ccccc3)nc2[nH]1 [Compound 22, 6-methyl-N2,N4-diphenyl-7H-pyrrolo[2,3-d]pyrimidine-2,4-diamine] |  | 1 to 10 | > 10 | 
Cn1cnc2c(Nc3ccccc3)nc(-c3ccccc3)nc21 [Compound 24, 9-methyl-N,2-diphenyl-9H-purin-6-amine] |  | > 10 | > 10 | 
Cc1cc2c(-c3ccccc3)nc(-c3ccccc3)nc2[nH]1 [Compound 26, 6-methyl-2,4-diphenyl-7H-pyrrolo[2,3-d]pyrimidine] |  |  | > 10 | 
Cc1cc2c(NC(C)(C)C)nc(-c3ccccc3)nc2[nH]1 [Compound 27, N-(tert-butyl)-6-methyl-2-phenyl-7H-pyrrolo[2,3-d]pyrimidin-4-amine] |  |  | > 10 | 
Cc1cc2c(NCC3CC3)nc(-c3ccccc3)nc2[nH]1 [Compound 29, N-(cyclopropylmethyl)-6-methyl-2-phenyl-7H-pyrrole[2,3-d]pyrimidin-4-amine] |  | 1 to 10 | 1 to 10 | 
Cc1cc2c(NCc3ccccc3)nc(-c3ccccc3)nc2[nH]1 [Compound 30, N-benzyl-6-methyl-2-phenyl-7H-pyrrolo[2,3-d]pyrimidin-4-amine] |  |  | > 10 | 
CC(C)Nc1nc(-c2ccccc2)nc2[nH]ccc12 [Compound 32, N-isopropyl-2-phenyl-7H-pyrrolo[2,3-d]pyrimidin-4-amine] |  |  | > 10 | 
CC(C)Nc1nc(-c2ccccc2)nc2[nH]c(Br)cc12 [Compound 33, 6-bromo-N-isopropyl-2-phenyl-7H-pyrrolo[2,3-d]pyrimidin-4-amine] |  |  | > 10 | 
Cc1cc2c(NCC(C)(C)O)nc(-c3ccccc3)nc2[nH]1 [Compound 35, 2-methyl-1-((6-methyl-2-phenyl-7H-pyrrolo[2,3-d]pyrimidin-4-yl)amino)propan-2-ol] |  |  | > 10 | 
